The text below walks through data of patent publication US12151021B2, “Implantable nanochannel delivery devices” (THE METHODIST HOSPITAL SYSTEM, priority 2015, dated 2024).

Structures can show the parent of a compound that is named as a salt. Where two headings read alike, the source gives them in different places.

Data set [1] in a line: Doxorubicin release in vitro from nanochannel capsules (UV-Vis at 479 nm). The conditions noted are these: in 4 days; capsules with 20 nm nanochannels, loading solution 0.58 mg/ml, 23 °C, n=5. The class given is physicochemical.
Experimental: Doxorubicin loaded nanochannel capsules (n=5) were immersed in 400 μl of Millipore water in microvolume spectroscopy cuvettes sealed with tight-fitting lids. Absorbance measures were taken every 10 min for 9 days at 479 nm by a custom-built robotic carousel (Quantum Northwest, Inc.) connected to a UV-Vis spectrophotometer (Cary 50, Agilent Technologies, Inc.). The 479 nm wavelength was selected as optimal for doxorubicin with this system by prior full spectrum analysis. The cuvettes were maintained at 23±0.3° C. for the duration of the experiment. Data were normalized with respect to a Millipore water blank, and the cumulative release of the agents was obtained through comparison to a standard curve.
The nanochannel capsules were loaded with Doxorubicin and placed in isotonic conditions in vitro to characterize their release kinetics. The nanochannel capsules were immersed in PBS within microvolume cuvettes, which were sealed with tight-fitting lids. Release into the sink solution was measured via absorbance measurements at 479 nm by a robotic 48-cell carousel (Quantum Northwest, Inc.) linked to a UV-Vis Spectrophotometer (Cary 50, Agilent Technologies, Inc.). Overall drug release was evaluated via comparison of measured absorbances to standard curves following normalization with respect to initial conditions (t=0).
On the set-up of data set [2]: species or system C57B16 mice. The conditions noted are these: mouse, in vivo. The protocol:
All animal procedures described herein followed IACUC protocols approved by their requisite institutions. C57B16 mice were implanted with 10^6 melanoma cells (B16F10) in the upper thigh (n=5). Once tumors reached 12 mm in its longer axis, sterile nanochannel implants loaded with 470 mg/ml of Magnevist were percutaneously implanted into the tumors with a 15 G, percutaneous trocar at a 90°angle from the axial axis of the tumor. Briefly, rodents were anesthetized with 3% isofluorane and immobilized within a sterile field. The percutaneous implantation site was cleaned with chlorhexidine and 70% ethanol and all nearby hair was shaved. The trocar was inserted to the target depth of approximately 5 mm. The nanochannel capsule was extruded through manual pressure with the obturator and the trocar was removed. A single drop of bupivicaine was added to the implantation site. The implantation site was closed with suture to ensure implant immobility and restrict animal agitation of the site. The mice had secondary heating maintained throughout the procedure and until they recovered from anesthesia.
For the in vivo MR imaging, T1- and T2-weighted images were acquired axially with respect to the laboratory frame of reference on a 7 T Bruker BioSpec Scanner (Bruker Biospin, Billerica, MA, USA). […]

Data set [3] is described as follows: Magnevist release in vitro from PEEK nanochannel capsules (MR T1 mapping). The class given is physicochemical. As to conditions: at plateau beginning by Day 3; 47 mg/ml loading, PBS, 37 °C, n=4; approximation based on loading concentration. The protocol:
The drug eluting fiducial markers were loaded with a number of different molecules to examine release kinetics into simulated physiological solution in vitro. In a series of experiments, the implants were loaded with ˜2.5 μL of OX86, FGK45, or Magnevist, placed in a 70 μL cuvette, and immersed in PBS. The cuvettes were sealed with tight-fitting lids and kept in an incubator at 37° C. The PBS solution was sampled and replaced daily. The OX86 and FGK45 release was quantified by micro-BCA assay (Sigma-Aldrich). The Magnevist was quantified through MR scanning. (7 T magnet, cut-down 96-well plate in a wrist coil). An additional experiment for quantifying IgG release was conducted similarly, but at room temperature and quantified via UV-Vis spectroscopy at 280 nm sampled every 10 minutes.
PEEK nanochannel capsules loaded with Magnevist (n=4) were immersed in 500 μl of PBS in microvolume cuvettes sealed with tight-fitting lids. These microvolume cuvettes were then placed in a 37° C. incubator. The 500 μl of sink solution were sampled and replaced daily for 7 days. The sink samples were stored at 4° C. Magnevist concentration within the samples was quantified through MR imaging of the samples within a custom-built 49 well plate (7×7) with 300 μl well volumes. […]

For data set [4] the following is noted: from BioNumbers (Milo et al.), cited from earlier work.

For `COc1cccc2c1C(=O)c1c(O)c3c(c(O)c1C2=O)C[C@@](O)(C(=O)CO)C[C@@H]3O[C@H]1C[C@H](N)[C@H](O)[C@H](C)O1` [Doxorubicin, Doxorubicin hydrochloride salt], the “release depleted fraction of the reservoir volume” value in data set [1] was “around 80%”.
In the case of `CNC[C@H](O)[C@@H](O)[C@H](O)[C@H](O)CO.CNC[C@H](O)[C@@H](O)[C@H](O)[C@H](O)CO.O=C([O-])CN(CCN(CC(=O)[O-])CC(=O)O)CCN(CC(=O)[O-])CC(=O)O.[Gd+3]` [Magnevist, gadopentetate dimeglumine], in data set [2], the “distance from implant's exterior at which observable enhancement begins” value is reported as 2-5 mm and the “thickness of band of observable enhancement” value is given as “approximately 1 mm”. Also, the “loaded Magnevist released” value in data set [3] amounted to 85%.
On to Immunoglobulin G, for which the figures for the hydrodynamic radius in data set [4] and in data set [4] (listed as IgG isotype immunoproteins) were 6.4 nm and “approximately 6.4 nm”, respectively.
